# According to patent US20120107916A1, “METHODS AND COMPOSITIONS FOR AFFECTING THE DIFFERENTIATION OF CLOSTRIDIA IN CULTURE” (priority 2009, published 2012):
# System: C. beijerinckii NCIMB 8052
# Test: Final pH of cell-free culture supernatants of sequential batch cultures
# Type: cell-based, Clostridium beijerinckii
# Method: Bacterial strains and media. Clostridium acetobutylicum ATCC 824 and C. beijerinckii NCIMB 8052 are available from several commercial microbial culture collections including the American Type Culture Collection (ATCC), Manassas, Va., USA. The strains were grown at 30° C. or 37° C. in YE broth, which contained, per liter: 5.0 g yeast extract, 2.5 g casamino acids, 1.0 g L-asparagine, 0.5 g cysteine.HCl, 56 mg K2HPO4, 56 mg KH2PO4, 82 mg anhydrous MgSO4, 8 mg FeSO4.H2O, 6 mg MnSO4.H2O and 10 g glucose. Alternatively, strains were grown in YEPG broth, which was identical to YE expect that K2HPO4 and KH2PO4 were increased to 145 mg/L each and glucose was increased to 60 g/L. The pH of the media was adjusted to 7.2 using 45% KOH prior to sterilization by autoclaving. Media were solidified by addition of 1.5% Bacteriological Agar, Actimedia Manufacturers, Inc., Lansing, Mich. All cultures were grown in anaerobic conditions using the AnaeroPack System, Mitsubishi Gas Chemical Co., Inc., Japan, and GasPak EZ Gas Generating Sachets, Becton, Dickinson and Co., Sparks, Md. Spore stocks were kept at room temperature on agar-solidified media and were activated by suspending spores in 0.5 mL to 1.0 mL of medium followed by heating for 10 min at 80° C. before inoculation into growth medium.
# Growth and pH measurements. Growth of bacterial cultures was measured spectrophotometrically using optical density at 600 nm and pH of cell-free culture supernatants was measured using a hand-held Shindengen ISFET pH Meter KS501, Shendengen Electric Manufacturing Co., Ltd., Bannockburn, Ill.
# Effect of peptide SEQ ID NO:145 addition on sequential batch cultures of C. beijerinckii NCIMB 8052 grown at 30° C. Spores of C. beijerinckii NCIMB 8052 were germinated and grown overnight at 30° C. under anaerobic conditions in YEPG medium. After about 24 h of growth, […] of the culture was transferred (transfer 1) to each of four flasks that contained 10 mL of YEPG and either had no treatment or were treated with peptide SEQ ID NO:145 (see Table 8) at 1 nM, 10 nM or 50 nM. Thereafter, 75 μL of each culture was transferred, at the same time, every 24-48 h to 10 mL of fresh YEPG that contained the same peptide treatment or no treatment. Each culture was stopped after 96 hours of incubation and optical density, pH and ceric ion reactive chemicals were measured. Sequential batch culturing was continued through 6 transfers at which point all cultures appeared to be growing to the same extent (Table 12 and FIG. 4).
# Effect of peptide SEQ ID NO:145 addition on sequential batch cultures of C. beijerinckii NCIMB 8052 grown at 37° C. Spores of C. beijerinckii NCIMB 8052 were germinated and grown overnight at 37° C. under anaerobic conditions in YEPG medium that either contained 50 nM of peptide SEQ ID NO:145 or no added peptide. After about 24 h of growth, 10 μL of the untreated culture was transferred (transfer 1) to each of two flasks that contained 10 mL of YEPG with either no treatment or with 50 nM peptide SEQ ID NO:145. At the same time, 10 μL of the culture that was germinated in the presence of peptide SEQ ID NO:145 was also transferred to 10 mL of YEPG that contained 50 nM of peptide SEQ ID NO:145. Thereafter, 10 μL of each culture was transferred, at the same time, every 24-48 h to 10 mL of fresh YEPG that contained the same peptide treatment or no treatment. Each culture was stopped after 72 hours of incubation and optical density, pH and ceric ion reactive chemicals were measured. Addition of peptide SEQ ID NO:145 appeared to have no effect on endpoint measurements of the growth of C. beijerinckii NCIMB 8052 after germination or during sequential transfers of cultures at 37° C. (Table 18 and FIG. 10). All three cultures stopped growing at the second transfer.
substance,measurement,setting,value
"IRLIT (Derived from Clostridium beijerinckii SEQ ID NO: 141) [Peptide SEQ ID NO:145, pentapeptide from C. beijerinckii NCIMB 8052 locus Cbei_1065; chemically synthesized putative autoinducing peptide]",Final pH of culture broths,"1 nM peptide, transfer 1, 96 h, 30° C.",5.3
same,Final pH of culture broths,"1 nM peptide, transfer 2, 96 h, 30° C.",5.3
same,Final pH of culture broths,"1 nM peptide, transfer 3, 96 h, 30° C.",5.1
same,Final pH of culture broths,"1 nM peptide, transfer 4, 96 h, 30° C.",5.3
same,Final pH of culture broths,"1 nM peptide, transfer 5, 96 h, 30° C.",5.3
same,Final pH of culture broths,"1 nM peptide, transfer 6, 96 h, 30° C.",5.3
same,Final pH of culture broths,"10 nM peptide, transfer 1, 96 h, 30° C.",5.3
same,Final pH of culture broths,"10 nM peptide, transfer 2, 96 h, 30° C.",5.3
same,Final pH of culture broths,"10 nM peptide, transfer 3, 96 h, 30° C.",5.0
same,Final pH of culture broths,"10 nM peptide, transfer 4, 96 h, 30° C.",5.3
same,Final pH of culture broths,"10 nM peptide, transfer 5, 96 h, 30° C.",5.4
same,Final pH of culture broths,"10 nM peptide, transfer 6, 96 h, 30° C.",5.3
same,Final pH of culture broths,"50 nM peptide added after germination, transfer 1, 72 h, 37° C.",4.1
same,Final pH of culture broths,"50 nM peptide added after germination, transfer 2, 72 h, 37° C.",6.5
same,Effect on endpoint measurements of pH,"50 nM peptide, 37° C.",no apparent effect
same,Final pH of culture broths,"50 nM peptide, transfer 1, 96 h, 30° C.",5.4
same,Final pH of culture broths,"50 nM peptide, transfer 2, 96 h, 30° C.",5.3
same,Final pH of culture broths,"50 nM peptide, transfer 3, 96 h, 30° C.",5.2
same,Final pH of culture broths,"50 nM peptide, transfer 4, 96 h, 30° C.",5.3
same,Final pH of culture broths,"50 nM peptide, transfer 5, 96 h, 30° C.",5.3
same,Final pH of culture broths,"50 nM peptide, transfer 6, 96 h, 30° C.",5.3
same,Final pH of culture broths,"50-50: germinated and transferred in 50 nM peptide, transfer 1, 72 h, 37° C.",4.1
same,Final pH of culture broths,"50-50: germinated and transferred in 50 nM peptide, transfer 2, 72 h, 37° C.",6.6
same,Final pH of culture broths,"50-50: spores germinated in 50 nM peptide, transfer 0 (germinated culture), 72 h, 37° C.",4.1
